# In paper PMC4959752, “Pharmacokinetics in Wistar Rats of 5-[(4-Carboxybutanoyl)Amino]-2-Hydroxybenzoic Acid: A Novel Synthetic Derivative of 5-Aminosalicylic Acid (5-ASA) with Possible Anti-Inflammatory Activity” (PLoS ONE, 2016):
# Several values for one entry are separate records, joined by “and”; a condition that tells them apart may be missing. Equal entries are not always repeated. Where two headings read alike, the source gives them in different places.
# Key:
# [1] = Pharmacokinetic study of C2 in Wistar rats (plasma, HPLC, non-compartmental analysis); assay type: in vivo; settings: for k el: read-out: Ke (converted); for bioavailability: i.g. 100 mg/kg vs i.v. 50 mg/kg, read-out: F% orally (absolute oral bioavailability)
# Description: Prior to the studies (on the day of C2 administration), the Wistar rats (n = 6) were cannulated. For intravenous (i.v.) treatment, a 24 G catheter was placed in the right lateral tail vein (for blood collection), and another catheter was placed in the left (for C2 administration) lateral tail vein of the rat as follows: the animal was placed inside a trap (special acrylic stocks for rats), the rat tail was exposed, and the distal region of the tail was disinfected with 70% ethanol; the tail veins were then dilated using a heating pad (approximately 45°C). An assistant held the tail of the rat while the left lateral vein was located, and a 24 G catheter was then firmly inserted into the posterior third of the caudal vein of the animal, where it was fixed with adhesive tape (for intragastric and intraperitoneal studies, only one catheter was placed on the right for blood collection).
# For the intravenous study, a single dose of 50 mg/kg C2 was administered through the 24 G catheter when the rat was inside the trap. For the intragastric (i.g) pharmacokinetic study, a second group of rats (n = 6) received a single dose of 100 mg/kg using a 20 G gavage needle (animals were provided with a standard diet 4 h after dosing). For the intraperitoneal (i.p.) treatment, a third group of rats (n = 6) was injected with 75 mg/kg C2. In all pharmacokinetic studies, approximately 250 μL of blood was collected in heparinized tubes from each rat via the catheter in the right lateral tail vein prior to dosing and 5, 10, 20, 30, 45, 60, 90, 120, 180, 240, 300, 360, 540, 720 and 1440 min after dosing. These blood samples were supplemented with an equal volume of 0.9% sodium chloride solution. Plasma (100 μL) was harvested by centrifuging the blood samples at 8,000 rpm for 15 min, and the plasma was then immediately processed for analysis.
# The samples were prepared as follows: briefly, 450 μL of acetonitrile was added to 100 μL of rat plasma, and the mixture was vortexed for 5 min. Subsequently, 450 μL of methanol was added to the sample, which was then vortexed again and centrifuged to precipitate proteins. Subsequently, 10 μL of the supernatant was introduced into the HPLC system. The plasma concentrations of C2 were determined using an RP-HPLC with UV detection method that had previously been validated for pharmacokinetic studies and the complementary assays performed in this work.
# The plasma concentration–time data obtained after the i.v., i.g., and i.p. administration of C2 were subjected to a non-compartmental analysis using statistical moment theory. The pharmacokinetic parameters of C2 were calculated using the Kinetica 5.0 software (Adept Scientific Ltd), including the maximum plasma concentration (Cmax), time to reach Cmax (Tmax), elimination half-life (t1/2), area under the plasma concentration-time curve from time zero to the last measurable concentration (AUC0-t), area under the plasma concentration-time curve from time zero to infinity (AUCtot), mean residence time (MRT), clearance (CL), and apparent volume of distribution (Vd).
# [2] = Blood-plasma partitioning (BP ratio); assay type: in vitro ADME, Wistar rats; settings: Wistar rat blood, 37°C, 4 h
# Experimental: […] The plasma was separated from blood samples, and the concentration of C2 was determined based on a standard curve prepared with blank plasma using the RP-HPLC method. […] The concentration of C2 in blood cells was assumed to be equal to its unbound concentration in the plasma.
# [3] = Stability of C2 in rat plasma samples; assay type: in vitro ADME; settings: for Difference respect the nominal concentration (%): rat plasma deproteinized samples
# Experimental: The stability of C2 in plasma was evaluated using the QC samples at two concentrations by triplicate ([…]); these samples were stored at 25°C for 12, 24 and 36 h (short-term stability) and subjected to three freeze-thaw cycles (–20°C to 25°C). The post-preparative storage was evaluated by analyzing the ready-to-inject samples that had been refrigerated 4°C for 12, 24 and 36 h. The concentration of C2 after each storage period was related to the initial concentration of freshly prepared and immediately processed samples [40, 41].
# [4] = pharmacokinetic model (Kinetica 5.0), bi-exponential decline of plasma concentration
# [5] = pharmacokinetic model (Kinetica 5.0), calculated
# [6] = rat, plasma, ip, single dose (100 mg/kg in abstract, 75 mg/kg in methods), Wistar rats
# [7] = rat, plasma, iv, single dose 50 mg/kg, Wistar rats
# [8] = rat, plasma, i.g. (oral), single dose 100 mg/kg, Wistar rats
structure (smiles),measurement,setting,value
"O=C(O)CCCC(=O)Nc1ccc(O)c(C(=O)O)c1 [C2, 5-[(4-carboxybutanoyl)amino]-2-hydroxybenzoic acid]",detection in the plasma,[1]; 6 h after administration,no longer detected
same,half-life,"[1]; Wistar, rat, plasma, ip, 75 mg/kg, i.p., single dose (100 mg/kg in abstract, 75 mg/kg in methods), Wistar rats, read-out: t1/2 e",38 ± 3 min
same,half-life,"[1]; Wistar, rat, plasma, iv, 50 mg/kg, i.v., single dose 50 mg/kg, Wistar rats, read-out: t1/2 e (elimination half-life)",~33 min
same,Tmax,"[1]; Wistar, rat, plasma, iv, 50 mg/kg, single dose 50 mg/kg, Wistar rats",5 min
same,half-life,"[1]; Wistar, rat, plasma, pharmacokinetic model (Kinetica 5.0), read-out: elimination half-life α (t1/2α)",18 min
same,half-life,"[1]; Wistar, rat, plasma, pharmacokinetic model (Kinetica 5.0), read-out: elimination half-life β (t1/2β)",62 min
same,half-life,"[1]; Wistar, rat, plasma, po, 100 mg/kg, i.g. (oral), single dose 100 mg/kg, Wistar rats, read-out: t1/2 e",~27 min
same,Cmax,"[1]; i.g. (oral), single dose 100 mg/kg, Wistar rats, plasma",2500 ± 300 ng/mL
same,Ka,"[1]; i.p., single dose (100 mg/kg in abstract, 75 mg/kg in methods), Wistar rats",1.2 ± 0.2 h⁻¹
same,Cp^0,"[1]; i.v., single dose 50 mg/kg, Wistar rats",26900 ± 3700 ng/mL
same,α,[1]; [4],0.037 min⁻¹
same,β,[1]; [4],0.011 min⁻¹
same,K12,[1]; [5],0.008 min⁻¹
same,K21,[1]; [5],0.022 min⁻¹
same,AUC,[1]; [6],12500 ng·h/mL
same,MRT,[1]; [6],69 min
same,Cmax,"[1]; rat, plasma, ip, single dose (100 mg/kg in abstract, 75 mg/kg in methods), Wistar rats, read-out: Cmax",8700 ± 400 ng/mL
same,k el,[1]; [6],0.00025 s⁻¹
same,AUC,[1]; [7],20800 ng·h/mL
same,MRT,[1]; [7],57 min
same,Vd,[1]; [7],2 ± 0.2 L/kg
same,clearance,[1]; [7],13 ± 3 mL/min
same,k el,[1]; [7],0.000361 s⁻¹
same,bioavailability,"[1]; rat, plasma, oral, Wistar rats",~13%
same,bioavailability,"[1]; rat, plasma, po, Wistar rats",13%
same,Cmax,"[1]; rat, plasma, po, intragastric administration, 100 mg/kg, Wistar rats (abstract), read-out: Cmax",2500 ng/mL
same,AUC,[1]; [8],2620 ng·h/mL
same,MRT,[1]; [8],49 min
same,k el,[1]; [8],0.0005 s⁻¹
same,BP ratio ± SD,[2]; 5 μg/mL,0.71 and 0.71 ± 0.01
same,BP ratio ± SD,[2]; 10 μg/mL,0.6 and 0.60 ± 0.03
same,Difference respect the nominal concentration (%),"[3]; Refrigeration (4°C), 12 h, 1 μg/mL",0.8%
same,Difference respect the nominal concentration (%),"[3]; Refrigeration (4°C), 12 h, 2.5 μg/mL",1.5%
same,Difference respect the nominal concentration (%),"[3]; Refrigeration (4°C), 12 h, 25 μg/mL",0.1%
same,Difference respect the nominal concentration (%),"[3]; Refrigeration (4°C), 12 h, 100 μg/mL",0.5%
same,Difference respect the nominal concentration (%),"[3]; Refrigeration (4°C), 24 h, 1 μg/mL",2.2%
same,Difference respect the nominal concentration (%),"[3]; Refrigeration (4°C), 24 h, 2.5 μg/mL",2.6%
same,Difference respect the nominal concentration (%),"[3]; Refrigeration (4°C), 24 h, 25 μg/mL",3.1%
same,Difference respect the nominal concentration (%),"[3]; Refrigeration (4°C), 24 h, 100 μg/mL",0.4%
same,Difference respect the nominal concentration (%),"[3]; Refrigeration (4°C), 36 h, 1 μg/mL",5.3%
same,Difference respect the nominal concentration (%),"[3]; Refrigeration (4°C), 36 h, 2.5 μg/mL",2.9%
same,Difference respect the nominal concentration (%),"[3]; Refrigeration (4°C), 36 h, 25 μg/mL",4.3%
same,Difference respect the nominal concentration (%),"[3]; Refrigeration (4°C), 36 h, 100 μg/mL",0.6%
same,Difference respect the nominal concentration (%),"[3]; Room Temperature (25°C), 12 h, 1 μg/mL",1.4%
same,Difference respect the nominal concentration (%),"[3]; Room Temperature (25°C), 12 h, 2.5 μg/mL",1.0%
same,Difference respect the nominal concentration (%),"[3]; Room Temperature (25°C), 12 h, 25 μg/mL",0.3%
same,Difference respect the nominal concentration (%),"[3]; Room Temperature (25°C), 12 h, 100 μg/mL",0.3%
same,Difference respect the nominal concentration (%),"[3]; Room Temperature (25°C), 24 h, 1 μg/mL",2.1%
same,Difference respect the nominal concentration (%),"[3]; Room Temperature (25°C), 24 h, 2.5 μg/mL",2.3%
same,Difference respect the nominal concentration (%),"[3]; Room Temperature (25°C), 24 h, 25 μg/mL",2.9%
same,Difference respect the nominal concentration (%),"[3]; Room Temperature (25°C), 24 h, 100 μg/mL",0.7%
same,Difference respect the nominal concentration (%),"[3]; Room Temperature (25°C), 36 h, 1 μg/mL",5.8%
same,Difference respect the nominal concentration (%),"[3]; Room Temperature (25°C), 36 h, 2.5 μg/mL",2.6%
same,Difference respect the nominal concentration (%),"[3]; Room Temperature (25°C), 36 h, 25 μg/mL",3.7%
same,Difference respect the nominal concentration (%),"[3]; Room Temperature (25°C), 36 h, 100 μg/mL",1.7%
same,Difference respect the nominal concentration (%),"[3]; freeze–thaw (–20 to 25°C), Cycle 2 (24 h), 1 μg/mL",2.7%
same,Difference respect the nominal concentration (%),"[3]; freeze–thaw (–20 to 25°C), Cycle 2 (24 h), 2.5 μg/mL",2.9%
same,Difference respect the nominal concentration (%),"[3]; freeze–thaw (–20 to 25°C), Cycle 2 (24 h), 25 μg/mL",1.7%
same,Difference respect the nominal concentration (%),"[3]; freeze–thaw (–20 to 25°C), Cycle 2 (24 h), 100 μg/mL",0.5%
same,Difference respect the nominal concentration (%),"[3]; freeze–thaw (–20 to 25°C), Cycle 3 (36 h), 1 μg/mL",6.0%
same,Difference respect the nominal concentration (%),"[3]; freeze–thaw (–20 to 25°C), Cycle 3 (36 h), 2.5 μg/mL",5.1%
same,Difference respect the nominal concentration (%),"[3]; freeze–thaw (–20 to 25°C), Cycle 3 (36 h), 25 μg/mL",1.7%
same,Difference respect the nominal concentration (%),"[3]; freeze–thaw (–20 to 25°C), Cycle 3 (36 h), 100 μg/mL",0.6%
same,Difference respect the nominal concentration (%),"[3]; freeze–thaw (–20 to 25°C), cycle 1 (12 h), 1 μg/mL",1.8%
same,Difference respect the nominal concentration (%),"[3]; freeze–thaw (–20 to 25°C), cycle 1 (12 h), 2.5 μg/mL",1.8%
same,Difference respect the nominal concentration (%),"[3]; freeze–thaw (–20 to 25°C), cycle 1 (12 h), 25 μg/mL",2.0%
same,Difference respect the nominal concentration (%),"[3]; freeze–thaw (–20 to 25°C), cycle 1 (12 h), 100 μg/mL",0.5%
same,stability in rat plasma,[3]; stored at 4°C and 25°C for 36 h,stable
